Assay results as given in US12446495B2, “Injection systems, injection tools and methods for same” (Invaio Sciences International GmbH, priority 2018, dated 2025).

Experiment: Distribution of test substance within plants after trunk injection
Type: in vivo
Settings: solution comprising 2% Brilliant Blue E 133 injected; trees felled and cut in pieces; over 24 hours
Source text: The trunk injection devices have been tested regarding the use with different types of trunks, the speed of absorption, distribution of product within the plant, and the continuing usage of an injection device within a trunk. The injection devices have been tested with trunks with a diameter between 2 cm and 30 cm. The tests have been conducted with box, vine, hazelnut, walnut, maple, beach and oak. Further, trees such as date palm, citrus tree, and banana tree would be suitable as well.′ Speed of absorption is influenced by factors such as weather, season, time of day and injection pressure. Within tests conducted under ideal conditions, an injection pressure of 2.5 bars, and 10 ml of test substance, absorption times below 2 minutes have been achieved.
Distribution within plants has been tested injecting a solution comprising 2% Brilliant Blue E 133 (CAS reg. No. 3844-45-9.) as a test substance. Trees have afterwards been felled and cut in pieces to analyze the distribution of the test substance over time within the plant. The test substance did typically distribute over 5 meters within the stem over 24 hours.

With `CCN(Cc1cccc(S(=O)(=O)[O-])c1)c1ccc(C(=C2C=CC(=[N+](CC)Cc3cccc(S(=O)(=O)[O-])c3)C=C2)c2ccccc2S(=O)(=O)[O-])cc1.[Na+].[Na+]` [Brilliant Blue E 133] the “distribution of the test substance within the stem” value was about 5 meters.
